# Patent publication US20250170126A1 (MITSUBISHI TANABE PHARMA CORPORATION, priority 2022, published 2025)
# Structures can show the parent of a compound that is named as a salt.
# Biological target: Human B0AT1 (Homo sapiens (Human), UniProt Q695T7)
# Test: hB0AT1 inhibitory test (phenylalanine uptake)
# Assay type: cell-based
# Conditions: Human B0AT1 stable expression CHO cells; [3H]-L-phenylalanine uptake, phenylalanine 0.25 mM
# Description: A test compound dissolved in dimethyl sulfoxide (DMSO) was added to a 96 well plate for solid phase radioactivity measurement containing a scintillator at the bottom of the well (final concentration of DMSO 0.5%). DMSO alone as a control and DMSO containing N-(4-bromophenyl)-3,5-dichloro-2-hydroxybenzamide (final concentration […]) for the is measurement of B0AT1 non-specific uptake were similarly added at 0.5 μL per well. Human B0AT1 stable expression CHO cells suspended in a buffer (buffer containing 96 mM sodium chloride, 2 mM potassium chloride, 1.8 mM calcium chloride, 1 mM magnesium chloride, 0.01% bovine serum albumin, and 10 mM 2-[4-(2-hydroxyethyl)-1-piperazinyl]ethanesulfonic acid) were added by 90 μL to 75000 cells/well. After standing at ordinary temperature for 30 min or longer, the cells were subjected to a phenylalanine uptake experiment. A buffer containing L-phenylalanine and [3,4,5-3H]-L-phenylalanine was added by 10 μL per well (final concentration of phenylalanine 0.25 mM), and the radioactivity of the plate bottom surface at ordinary temperature was measured with a scintillation counter over time, and the radioactivity value after 100 to 200 min was analyzed. A value obtained by subtracting the B0AT1 non-specific uptake from the control uptake was taken as 100%, and the concentration necessary for each test compound to achieve 50% inhibition (IC50 value) was determined by nonlinear regression using a logistic model.
# Sequence of Human B0AT1 (Q695T7 whole entry): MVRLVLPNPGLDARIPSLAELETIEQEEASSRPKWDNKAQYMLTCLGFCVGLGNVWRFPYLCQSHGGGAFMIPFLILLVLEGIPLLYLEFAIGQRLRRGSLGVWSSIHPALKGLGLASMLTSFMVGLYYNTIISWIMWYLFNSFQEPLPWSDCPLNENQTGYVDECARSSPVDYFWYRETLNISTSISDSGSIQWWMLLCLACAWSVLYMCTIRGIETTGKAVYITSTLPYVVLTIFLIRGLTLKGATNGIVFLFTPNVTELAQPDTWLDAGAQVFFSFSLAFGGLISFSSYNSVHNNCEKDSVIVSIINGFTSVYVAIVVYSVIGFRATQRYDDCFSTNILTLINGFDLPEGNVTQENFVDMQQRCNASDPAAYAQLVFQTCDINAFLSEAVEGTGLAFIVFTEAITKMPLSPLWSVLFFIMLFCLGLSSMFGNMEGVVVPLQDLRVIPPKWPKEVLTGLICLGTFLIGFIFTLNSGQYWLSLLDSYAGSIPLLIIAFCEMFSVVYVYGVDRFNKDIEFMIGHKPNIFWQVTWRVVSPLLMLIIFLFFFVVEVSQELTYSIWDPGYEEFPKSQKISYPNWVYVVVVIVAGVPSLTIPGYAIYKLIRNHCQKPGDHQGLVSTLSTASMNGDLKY
row,SMILES,IC50 [nM]
1,O=C(/C=C/c1ccc(C(F)(F)F)cc1)NCC(=O)N1CCCn2nccc21 [I-86],23
2,O=C(/C=C/c1ccc(OC(F)F)cc1)NCC(=O)N1CCn2nccc2C1 [I-89],94
3,COc1cc2c(cn1)CN(C(=O)CNC(=O)/C=C/c1ccc(C(F)(F)F)cc1)CC2 [I-92],20
4,O=C(/C=C/c1ccc(C(F)(F)F)cc1)NCC(=O)N1CCn2ncc(Br)c2C1 [I-96],10
5,CC1Cn2ncnc2CN1C(=O)CNC(=O)/C=C/c1ccc(C(F)(F)F)cc1 (stereo not shown) [I-97],397
6,O=C(/C=C/c1ccc(C(F)(F)F)cc1)NCC(=O)N1CCc2[nH]nnc2C1 [I-98],78
7,O=C(/C=C/c1ccc(C(F)(F)F)cc1)NCC(=O)N1CCc2nnccc2C1 [I-99],64
8,CN(C)C(=O)CNC(=O)/C=C/c1ccc(C(F)(F)F)cc1 [I-104],2030
9,Cc1nc(-c2ccc(/C=C/C(=O)NCC(=O)N3CCN(C)CC3)cc2)no1 [I-107],1160
10,CCCOc1ccc(/C=C/C(=O)NCC(=O)N2CCN(C)CC2)cc1 [I-108],104
11,CN1CCN(C(=O)CNC(=O)/C=C/c2ccc(OCC(F)(F)C(F)F)cc2)CC1 [I-109],267
12,CN1CCN(C(=O)CNC(=O)/C=C/c2ccc(OCC3CC3)cc2)CC1 [I-114],925
13,CN1CCN(C(=O)CNC(=O)/C=C/c2ccc(C3CCC3)cc2)CC1 [I-116],39
14,CCOc1ccc(/C=C/C(=O)NCC(=O)N2CCN(C)CC2)cc1 [I-117],199
15,CN1CCN(C(=O)CNC(=O)/C=C/c2ccc(OC(F)(F)F)cc2)CC1=O [I-118],137
16,"CC1CN(C)CCN1C(=O)CNC(=O)/C=C/c1ccc(C(F)(F)F)cc1 (stereo not shown) [I-119, (E)-N-[2-(2,4-dimethylpiperazin-1-yl)-2-oxoethyl]-3-[4-(trifluoromethyl)phenyl]prop-2-enamide]",30
17,Cc1nnc([C@H]2CN(C)CCN2C(=O)CNC(=O)/C=C/c2ccc(C(F)(F)F)cc2)o1 [I-121],81
18,CN1[C@@H]2CC[C@H]1CN(C(=O)CNC(=O)/C=C/c1ccc(C(F)(F)F)cc1)C2 [I-122],640
19,CN1CCN(C(=O)CNC(=O)/C=C/c2ccc(-c3cc(F)c(F)c(F)c3)cc2)CC1 [I-127],88
20,CN1CCN(C(=O)CNC(=O)/C=C/c2ccc(-c3ccc(C(F)(F)F)cc3)cc2)CC1 [I-128],678
21,"Cc1nnc([C@H]2CN(C(=O)CNC(=O)/C=C/c3ccc(C(F)(F)F)cc3)CCN2C)o1 [I-131, (E)-N-[2-[(3R)-4-methyl-3-(5-methyl-1,3,4-oxadiazol-2-yl)piperazin-1-yl]-2-oxoethyl]-3-[4-(trifluoromethyl)phenyl]prop-2-enamide]",1930
22,"O=C(/C=C/c1ccc(C(F)(F)F)cc1)NCC(=O)N1CCNCC1 [I-133, (E)-N-(2-oxo-2-piperazin-1-ylethyl)-3-[4-(trifluoromethyl)phenyl]prop-2-enamide hydrochloride]",69
23,"CCNC(=O)N1CCN(C(=O)CNC(=O)/C=C/c2ccc(C(F)(F)F)cc2)CC1 [I-134, N-ethyl-4-[2-[[(E)-3-[4-(trifluoromethyl)phenyl]prop-2-enoyl]amino]acetyl]piperazine-1-carboxamide]",1240
24,"CNC(=O)[C@H]1CN(C)CCN1C(=O)CNC(=O)/C=C/c1ccc(C(F)(F)F)cc1 [I-139, (2R)-N,4-dimethyl-1-[2-[[(E)-3-[4-(trifluoromethyl)phenyl]prop-2-enoyl]amino]acetyl]piperazine-2-carboxamide]",133
25,"O=C(/C=C/c1ccc(C(F)(F)F)cc1)NCC(=O)N1CCn2cc(C(=O)O)nc2C1 [I-140, 7-[2-[[(E)-3-[4-(trifluoromethyl)phenyl]prop-2-enoyl]amino]acetyl]-6,8-dihydro-5H-imidazo[1,2-a]pyrazine-2-carboxylic acid]",328
26,"CC(=O)N[C@H]1CCN(C(=O)CNC(=O)/C=C/c2ccc(C(F)(F)F)cc2)C1 [I-143, (E)-N-[2-[(3S)-3-acetamidopyrrolidin-1-yl]-2-oxoethyl]-3-[4-(trifluoromethyl)phenyl]prop-2-enamide]",550
27,CN(C)C(=O)c1cn2c(n1)CN(C(=O)CNC(=O)/C=C/c1ccc(C(F)(F)F)cc1)CC2 [I-146],93
28,"COCCN(C)C(=O)CN(CCOC)C(=O)CNC(=O)/C=C/c1ccc(C(F)(F)F)cc1 [I-147, (E)-N-[2-[2-methoxyethyl-[2-[2-methoxyethyl(methyl)amino]-2-oxoethyl]amino]-2-oxoethyl]-3-[4-(trifluoromethyl)phenyl]prop-2-enamide]",298
29,"COCCN(CC(=O)N(C)CCO)C(=O)CNC(=O)/C=C/c1ccc(C(F)(F)F)cc1 [I-148, (E)-N-[2-[[2-[2-hydroxyethyl(methyl)amino]-2-oxoethyl]-(2-methoxyethyl)amino]-2-oxoethyl]-3-[4-(trifluoromethyl)phenyl]prop-2-enamide]",259

# The remaining compounds from weak to strong by IC50, led by results:
row,IC50 [nM],SMILES
1,1720,"O=C(/C=C/c1ccc(C(F)(F)F)cc1)NCC(=O)N1C[C@H](O)C[C@@H]1c1ccccc1 [I-141, (E)-N-[2-[(2R,4R)-4-hydroxy-2-phenylpyrrolidin-1-yl]-2-oxoethyl]-3-[4-(trifluoromethyl)phenyl]prop-2-enamide]"
2,1700,"CN(C)C(=O)[C@H]1CCN(C(=O)CNC(=O)/C=C/c2ccc(C(F)(F)F)cc2)C1 [I-145, (3S)-N,N-dimethyl-1-[2-[[(E)-3-[4-(trifluoromethyl)phenyl]prop-2-enoyl]amino]acetyl]pyrrolidine-3-carboxamide]"
3,1620,"O=C(/C=C/c1ccc(C(F)(F)F)cc1)NCC(=O)N1CC[C@H](C(=O)O)C1 [I-125, (3S)-1-[2-[[(E)-3-[4-(trifluoromethyl)phenyl]prop-2-enoyl]amino]acetyl]pyrrolidine-3-carboxylic acid]"
4,486,"CNC(=O)CC(COC)N(CCOC)C(=O)CNC(=O)/C=C/c1ccc(C(F)(F)F)cc1 (stereo not shown) [I-130, 4-methoxy-3-[2-methoxyethyl-[2-[[(E)-3-[4-(trifluoromethyl)phenyl]prop-2-enoyl]amino]acetyl]amino]-N-methylbutanamide]"
5,471,CN1CCN(C(=O)CNC(=O)/C=C/c2ccc(-c3cccnc3)cc2)CC1 [I-111]
6,406,"CN1CCN(C(=O)CNC(=O)/C=C/c2ccc(C(F)(F)F)cc2)[C@@H](C(=O)N(C)C)C1 [I-138, (2R)-N,N,4-trimethyl-1-[2-[[(E)-3-[4-(trifluoromethyl)phenyl]prop-2-enoyl]amino]acetyl]piperazine-2-carboxamide]"
7,276,CC(C)c1ccc(/C=C/C(=O)NCC(=O)N2CCN(C)CC2)cc1 [I-106]
8,261,"CNC(=O)[C@H]1CCN(C(=O)CNC(=O)/C=C/c2ccc(C(F)(F)F)cc2)C1 [I-144, (3S)-N-methyl-1-[2-[[(E)-3-[4-(trifluoromethyl)phenyl]prop-2-enoyl]amino]acetyl]pyrrolidine-3-carboxamide]"
9,186,O=C(/C=C/c1ccc(C(F)(F)F)cc1)NCC(=O)N(CCO)Cc1ccccn1 [I-85]
10,178,CCCCOc1ccc(/C=C/C(=O)NCC(=O)N2CCN(C)CC2)cc1 [I-113]
11,175,"CN1CCN(C(=O)CNC(=O)/C=C/c2ccc(C(F)(F)F)cc2)[C@H](C(=O)O)C1 [I-123, (2S)-4-methyl-1-[2-[[(E)-3-[4-(trifluoromethyl)phenyl]prop-2-enoyl]amino]acetyl]piperazine-2-carboxylic acid]"
12,124,O=C(/C=C/c1ccc(C(F)(F)F)cc1)NCC(=O)N1CCCc2ccccc21 [I-87]
13,98,CN1CCN(C(=O)CNC(=O)/C=C/c2ccc(C3CC3)cc2)CC1 [I-110]
14,79,Cn1nnc2c1CCN(C(=O)CNC(=O)/C=C/c1ccc(C(F)(F)F)cc1)C2 [I-100]
15,66,"CC(C)(O)c1cc2n(n1)CCN(C(=O)CNC(=O)/C=C/c1ccc(C(F)(F)F)cc1)C2 [I-129, (E)-N-[2-[2-(1-hydroxy-1-methylethyl)-6,7-dihydro-4H-pyrazolo [1,5-a]pyrazin-5-yl]-2-oxoethyl]-3-[4-(trifluoromethyl)phenyl]prop-2-enamide]"
16,56,CN1CCN(C(=O)CNC(=O)/C=C/c2ccc(OC(F)(F)F)cc2)CC1 [I-112]
17,54,O=C(/C=C/c1ccc(C(F)(F)F)cc1)NCC(=O)N1CCc2cncnc2C1 [I-84]
18,40,COc1ccc2c(n1)CN(C(=O)CNC(=O)/C=C/c1ccc(C(F)(F)F)cc1)CC2 [I-94]
19,38,"CN1CCN(C(=O)CNC(=O)/C=C/c2ccc(-c3ccc(F)cc3)cc2)CC1 [I-126, (E)-3-[4-(4-fluorophenyl)phenyl]-N-[2-(4-methylpiperazin-1-yl)-2-oxoethyl]prop-2-enamide]"
20,36,COc1nccc2c1CN(C(=O)CNC(=O)/C=C/c1ccc(C(F)(F)F)cc1)CC2 [I-91]
21,31,O=C(/C=C/c1ccc(C(F)(F)F)cc1)NCC(=O)N1CCn2nccc2C1 [I-93]
22,31,"CN1CCN(C(=O)CNC(=O)/C=C/c2ccc(-c3ccccc3)cc2)CC1 [I-103, (E)-N-[2-(4-methylpiperazin-1-yl)-2-oxoethyl]-3-(4-phenylphenyl) prop-2-enamide]"
23,23,COc1nccc2c1CCN(C(=O)CNC(=O)/C=C/c1ccc(C(F)(F)F)cc1)C2 [I-90]
